In the test the test system is beta-catenin. The experiment in a line: Western blot of beta-catenin in adult neuronal stem and progenitor cells after inhibition of the Wnt signal pathway. In kind it is cell-based, rat. Particulars: genistein 50 μM, undifferentiated and differentiated, densitometry of Western blot, versus cells without inhibition. The method, then:
To inhibit the Wnt signal pathway, the unspecific kinase inhibitor genistein is added at a concentration of 50 μM in order to inhibit the action of glycogen synthase kinase 3 (GSK 3) (Murase S et al., 2002, Neuron, 35, 91-105).
Subsequently, a protein extract (see above, example 1) is prepared and the beta-catenin protein is identified by one dimensional gel electrophoresis and Western blotting (FIG. 3, FIG. 4).
The protein extracts of the adult neuronal stem cells are first fractionated in a 12% polyacrylamide gel in Lammli buffer consisting of 2% (w/v) sodium dodecylsulfate, 10% (v/v) glycerol, 100 mM dithiothreitol, 60 mM Tris-HCl, pH 6.8, 0.001% bromophenol blue and 5% 2-mercaptoethanol and applied to a nitrocellulose membrane (Optitran BA-S83, 0.2 μm, Schleicher & Schnell, Dassel, Germany) by the semi-dry blotting method (Kyhse-Andersen J, 1984, J Biochem Biophys Methods, 10, 203-209). […] Antibody binding is detected by way of chemiluminescent signals. […] The X-ray films are developed and measured densitometrically. […]

`O=c1c(-c2ccc(O)cc2)coc2cc(O)cc(O)c12` [genistein, 4′,5,7-trihydroxyisoflavone]: the “reduction of β-catenin expression (factor)” value is roughly 2.

These data come from patent publication US20090081189A1, “Process for in vitro differentiation of neuronal stem cells or of cells derived from neuronal stem cells” (Axaron Bioscfience Ag, priority 2003, published 2009).
